Assay results from ChEMBL document CHEMBL4613258, “Distribution of Bibenzyls, Prenyl Bibenzyls, Bis-bibenzyls, and Terpenoids in the Liverwort Genus Radula” (J Nat Prod, 2020).
In brackets after ≈: the same amount, converted by molar mass.

Experiments:
[1] = Inhibition of calmodulin (unknown origin); conditions: Homo sapiens
RAW264.7 = experiment: Inhibition of LPS-induced NO-production in mouse RAW264.7 cells at 4.5 to 20 uM incubated for 24 hrs by Griess reagent based assay relative to control; assay type: functional
Candida albicans = experiment: Antifungal activity against Candida albicans; assay type: functional
[2] = system: Trichophyton mentagrophytes; experiment: Antifungal activity against Trichophyton mentagrophytes; assay type: functional
[3] = system: Trichostrongylus colubriformis; experiment: Antiparasitic activity against Trichostrongylus colubriformis; assay type: functional, organism-based
[4] = system: Trichostrongylus colubriformis; experiment: Antiparasitic activity against Trichostrongylus colubriformis assessed as inhibiton of parasite growth at 0.7 ug/ml relative to control; assay type: functional
Staphylococcus aureus = experiment: […] activity against Staphylococcus aureus; assay type: functional
Cyclooxygenase = Cyclooxygenase (Homo sapiens, UniProt P35354+P23219); experiment: Inhibition of COX (unknown origin); assay type: protein assay
Macrophage = experiment: Inhibition of superoxide anion radical release in guinea pig macrophages; assay type: functional, cell-based; conditions: Cavia porcellus
[5] = Inhibition of DNA polymerase beta (unknown origin); set-up: species or system Homo sapiens
KB = experiment: Cytotoxicity against human KB cells; assay type: functional; conditions: read-out: ED50 (the source's name)
MRC5 = experiment: Cytotoxicity against human MRC5 cells; assay type: functional, cell-based
NCI-H1299 = experiment: Cytotoxicity against human NCI-H1299 cells; assay type: functional, cell-based
[6] = target: Vasopressin V1a receptor (Homo sapiens) (UniProt P37288); experiment: Antagonist activity at vasopressin (unknown origin)
Chain of Vasopressin V1a receptor (Homo sapiens) (P37288 whole entry, looked up): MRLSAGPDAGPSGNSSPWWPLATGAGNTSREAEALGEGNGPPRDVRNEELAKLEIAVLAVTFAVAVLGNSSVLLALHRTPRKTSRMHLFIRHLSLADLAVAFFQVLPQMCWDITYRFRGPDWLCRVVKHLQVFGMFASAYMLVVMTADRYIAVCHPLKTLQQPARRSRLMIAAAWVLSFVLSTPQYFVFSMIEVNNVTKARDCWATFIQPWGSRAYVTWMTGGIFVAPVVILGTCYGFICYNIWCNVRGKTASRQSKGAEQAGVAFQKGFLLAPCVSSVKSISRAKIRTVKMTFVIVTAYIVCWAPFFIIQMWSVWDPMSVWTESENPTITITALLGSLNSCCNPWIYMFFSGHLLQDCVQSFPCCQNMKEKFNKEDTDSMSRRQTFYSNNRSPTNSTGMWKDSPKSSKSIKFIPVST

[7] = Antioxidant activity assessed as DPPH radical scavenging activity at 50 ug/ml relative to control; assay type: functional

CC1=CCc2c(cc(CCc3ccc(O)cc3)c(C(=O)O)c2O)OC1
ID50 [1]: 18.5 µg/mL (≈ 54.4 µM)

C=C(C)[C@H]1Cc2c(CCc3ccccc3)cc(O)c(O)c2O1
ID50 [1]: 2 µg/mL (≈ 6.75 µM)

CC1=CCc2c(O)cc(CCc3ccccc3)cc2OC1
inhibition (INH) (RAW264.7): 50% | ID50 [1]: 95 µg/mL (≈ 339 µM)

COc1cccc(CCc2ccc(O)cc2)c1
MIC (Candida albicans): 125 µg/mL (≈ 548 µM) | MIC [2]: 62.5 µg/mL (≈ 274 µM) | IC50 [3]: 0.13 µg/mL (≈ 0.569 µM)

COc1ccc(CCc2cccc(OC)c2)cc1
inhibition at 0.7 µg/mL [4]: 30%

CC(C)=CCC/C(C)=C/Cc1c(O)cc(O)cc1CCc1ccccc1
MIC (Staphylococcus aureus): 20 µg/mL (≈ 57.1 µM) | inhibition (INH) (RAW264.7): 50% | ID50 [1]: 4 µg/mL (≈ 11.4 µM)

C[C@]12COc3cc(CCc4ccccc4)c(C(=O)O)c(O)c3[C@H]1C2
IC50 (Cyclooxygenase): 39.7 µM | inhibition (INH) (RAW264.7): 50% | IC50 (Macrophage): 6 µg/mL (≈ 18.5 µM)

Oc1cccc(CCc2ccc(Oc3cc(CCc4cccc(O)c4)cc(O)c3O)cc2)c1 [PERROTETTIN F]
IC50 [5]: 97.5 to 114 µM | EC50 (KB): 20 µg/mL (≈ 45.2 µM)

Oc1cccc(CCc2ccc(Oc3cc(CCc4cccc(O)c4)ccc3O)cc2)c1
IC50 (MRC5): 7.46 µg/mL (≈ 17.5 µM) | EC50 (KB): 12.5 µg/mL (≈ 29.3 µM)

CC1=CCc2c(O)cc(CCc3ccccc3O)cc2OC1
inhibition (INH) (RAW264.7): 50%

COC(=O)c1c(CCc2ccccc2)cc(O)c(CC=C(C)C)c1O
IC50 (NCI-H1299): 5.1 µM

COc1cc(CCc2ccccc2)cc(O)c1CC=C(C)C
MIC (Staphylococcus aureus): 3 µg/mL (≈ 10.1 µM) | ID50 [6]: 27 µg/mL (≈ 91.1 µM)

CC(C)=CCc1c(O)cc(O)cc1CCc1ccccc1
Activity [7]: 28% | ID50 [1]: 4.9 µg/mL (≈ 17.4 µM)

CC(C)=CCc1c(CCc2ccccc2)cc(O)c(O)c1O
ID50 [1]: 3.5 µg/mL (≈ 11.7 µM)
